This passage reports Ki results from patent US5916914A, “Compounds and method of treating psychosis and schizophrenia” (priority 1997, dated 1999).

Molecules are shown by their SMILES. Where a name gives a salt, the structure may show the parent alone.

Assay [1] concerns the target T1, human recombinant dopamine D4.2 receptor (Homo sapiens, UniProt P21917, DEL265-296).
T1 construct: expressed in transfected cells
T1 sequence (P21917 with tags, fused parts or gaps DEL265-296): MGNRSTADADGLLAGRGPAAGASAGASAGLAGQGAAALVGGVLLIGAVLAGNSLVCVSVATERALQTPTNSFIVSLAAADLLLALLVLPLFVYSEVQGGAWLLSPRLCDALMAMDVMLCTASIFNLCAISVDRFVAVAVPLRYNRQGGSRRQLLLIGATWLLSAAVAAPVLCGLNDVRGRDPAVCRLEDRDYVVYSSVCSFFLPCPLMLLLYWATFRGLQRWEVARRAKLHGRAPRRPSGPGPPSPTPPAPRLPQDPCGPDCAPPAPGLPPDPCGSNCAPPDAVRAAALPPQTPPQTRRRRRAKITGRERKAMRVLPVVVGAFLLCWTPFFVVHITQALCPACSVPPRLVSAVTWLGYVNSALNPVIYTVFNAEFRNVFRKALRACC
The experiment in a line: Receptor binding assay, D4.2 ([^3 H]spiperone). From the text:
(§1) A cell line expressing human dopamine D2 (Long form) receptors was purchased from Oregon Health Sciences University, Portland, Oreg. The D2 receptor cDNA was subcloned into an expression vector, pRc/CMV. The plasmids were transfected by electroporation into CHO K1 cells. A single stable transfectant, resistant to the antibiotic G418, was isolated and selected for use in the binding studies. For D4 binding, CHO K1 cells stably transfected to express the human recombinant dopamine D4.2 receptor subtype, as described by Shih, et al., "The expression and functional characterization of human dopamine D4.2 receptor in CHO K1 cells," Soc. Neurosci., 1995;21 (Part 1):621 were used.
(§2) CHO K1 cells expressing either human D2 and D4.2 receptors were grown in 162 cm^2 culture flasks in F12 medium (Gibco Laboratories, Grand Island, N.Y.) supplemented with 10% fetal bovine serum (FBS, Hyclone, Logan, Utah) in an atmosphere of 5% CO2 /95% air at 37 EC. Cells were grown until confluent, after which growth medium was removed and replaced with 0.02% ethylene diamine tetracetate (EDTA) in a phosphate-buffered saline solution (Sigma Chemical Co., St. Louis, Mo.) and scraped from the flasks. The cells were centrifuged at about 1000×g for 10 minutes at 4° C. and then resuspended in TEM buffer (25 mM Tris-HCL, pH 7.4, 5 mM EDTA, and 6 mM MgCl2) for D2 or the D4.2 buffer (50 mM Tris-HCl, pH 7.4, 5 mM EDTA, 1.5 mM CaCl2, 5 mM KCl, and 120 mM NaCl) and homogenized. The membranes were pelleted by centrifugation at 20000×g at 4° C. for 20 minutes. Then the pellets were resuspended in appropriate buffer at 1 mL/flask and stored at -70° C. until used in the receptor binding assay.
(§3) After 60 minutes incubation at 25° C., the incubations were terminated by rapid filtration through Whatmann GF/B glass fibre filters (soaked for 1 hour in 0.5% polyethylenimine) on a cell harvester, with three washes of 1 mL ice-cold buffer. Individual filter disks containing the bound ligand were placed in counting vials with 4 mL of scintillation fluid (Ready Gel, Beckman Instrument, Inc., Fullerton, Calif.) and then counted in a Beckman LS-6800 liquid scintillation counter at an efficiency of 45%. Nonspecific binding was defined in presence of 1 mM of haloperidol.
(§4) Saturation and competition binding data were analyzed using an iterative nonlinear least square curve-fitting Ligand program. […] Experimental compounds were made up as stock solutions in dimethyl sulfoxide (DMSO). […] Each observation was carried out in triplicate. To allow these calculations, Kd values were measured for the interaction of various ligands with the receptor. […]

Assay [2] concerns the target human dopamine D2 (Long form) receptors (Homo sapiens, UniProt P14416). The experiment in a line: biochemical. The assay is classed as binding.
From the text: as §1, §2, §3, §4

human dopamine D2 (Long form) receptors, sequence (P14416 whole entry): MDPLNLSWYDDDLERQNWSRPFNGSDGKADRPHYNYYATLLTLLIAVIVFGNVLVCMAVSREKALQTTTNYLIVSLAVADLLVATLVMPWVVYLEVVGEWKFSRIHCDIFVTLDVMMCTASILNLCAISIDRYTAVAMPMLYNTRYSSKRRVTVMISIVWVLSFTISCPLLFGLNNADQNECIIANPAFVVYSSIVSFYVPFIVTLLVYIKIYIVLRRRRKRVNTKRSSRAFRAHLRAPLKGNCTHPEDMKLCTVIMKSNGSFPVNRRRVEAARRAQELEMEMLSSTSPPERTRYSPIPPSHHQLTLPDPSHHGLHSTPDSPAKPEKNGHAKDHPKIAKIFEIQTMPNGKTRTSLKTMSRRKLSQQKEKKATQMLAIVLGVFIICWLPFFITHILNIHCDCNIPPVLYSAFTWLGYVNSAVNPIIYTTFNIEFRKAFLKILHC

As to `Cc1cc(=O)oc2cc(OCCNCCCOc3ccccc3)ccc12` [Example 3, 4-Methyl-7-[2-(3-phenoxy-propylamino)-ethoxy]-chromen-2-one Hydrochloride], the Ki in assay [1] is 1.9 nM; in assay [2] it was 231 nM.
As for `O=c1ccc2cc(CNCCNc3ccccc3)ccc2o1` [Example 4g, 6-[(2-Phenylamino-ethylamino)-methyl]-chromen-2-one], the inhibition constant Ki in assay [1] came out at 311 nM.
Still for that read-out and setting: to `O=c1ccc2ccc(CNCCOc3ccccc3)cc2o1` [Example 4m, 7-[(2-Phenoxy-ethylamino)-methyl]-chromen-2-one] belongs 43 nM.
Regarding `Cc1ccc(OCCNCc2ccc3oc(=O)ccc3c2)cc1` [Example 4k, 6-[(2-p-Tolyloxy-ethylamino)-methyl]-chromen-2-one], the Ki in assay [1] came to 23.8 nM; in assay [2], 5880 nM.
In the case of `Cc1ccc(OCCCNCc2ccc3ccc(=O)oc3c2)cc1` [Example 4s, 7-[(3-p-Tolyloxy-propylamino)-methyl]-chromen-2-one], the Ki in assay [1] is 234 nM.
For the compound `Cc1cc(=O)oc2ccc(OCCNCCCOc3ccccc3)cc12` [Example 3a, 4-Methyl-6-[2-(3-phenoxy-propylamino)-ethoxy]-chromen-2-one hydrochloride], in assay [1], the Ki came to 70.2 nM.
On the same count and under the same terms, to `O=c1ccc2ccc(CNCCCNc3ccccc3)cc2o1` [Example 4i, 7-[(3-Phenylamino-propylamino)-methyl]-chromen-2-one] belongs 31 nM; to `O=c1ccc2cc(CNCCOc3ccccc3)ccc2o1` [Example 4j, 6-[(2-Phenoxy-ethylamino)-methyl]-chromen-2-one hydrochloride], 64 nM.
Still for that read-out and setting: to `O=c1ccc2ccc(CNCCNc3ccc(CO)c(Cl)c3)cc2o1` [Example 4a, 7-{[2-(3-Chloro-4-hydroxymethyl-phenylamino)-ethylamino]-methyl}-chromen-2-one] belongs 95 nM.
As to `Cc1ccc(OCCNCc2ccc3ccc(=O)oc3c2)cc1` [Example 4n, 7-[(2-p-Tolyloxy-ethylamino)-methyl]-chromen-2-one], the results for the Ki in assay [1] and in assay [2] were 3.9 nM and 195 nM, respectively.
Turning to `O=c1ccc2ccc(CNCCCOc3ccc(Cl)cc3)cc2o1` [Example 4r, 7-{[3-(4-Chloro-phenoxy)-propylamino]-methyl}-chromen-2-one], the Ki in assay [1] was 92 nM.
For the compound `c1ccc(OCCCNCCOc2ccc3occc3c2)cc1` [Example 3b, [2-(Benzofuran-5-yloxy)-ethyl]-(3-phenoxy-propyl)-amine hydrochloride], the Ki in assay [1] was 1.2 nM; in assay [2], 502 nM.
For `O=c1ccc2ccc(CNCCSc3ccccc3)cc2o1` [Example 4p, 7-[(2-Phenylsulfanyl-ethylamino)-methyl]-chromen-2-one hydrochloride], the Ki in assay [1] was 394 nM.
The same measure, in the same setting: to `O=c1ccc2ccc(CNCCNc3cccc(Cl)c3)cc2o1` [Example 4d, 7-{[2-(3-Chloro-phenylamino)-ethylamino]-methyl}-chromen-2-one dihydrochloride] belongs 42 nM.
For `O=c1ccc2ccc(OCCNCCCOc3ccccc3)cc2o1` [Example 2c, 7-[2-(3-Phenoxy-propylamino)-ethoxy]-chromen-2-one hydrochloride], the Ki in assay [1] came to 1.6 nM; in assay [2], 249 nM.
Turning to `O=c1ccc2ccc(CNCCCc3ccccc3)cc2o1` [Example 4q, 7-[(3-Phenyl-propylamino)-methyl]-chromen-2-one], the Ki in assay [1] turned out to be 60 nM.
Consider `O=c1ccc2cc(CNCCOc3ccc(Cl)cc3)ccc2o1` [Example 4l, 6-{[2-(4-Chloro-phenoxy)-ethylamino]-methyl}-chromen-2-one], for which the values for the Ki in assay [1] and in assay [2] were 13.5 nM and 4870 nM, respectively.
With `c1ccc(OCCCNCCOc2ccc3oc4ccccc4c3c2)cc1` [Example 2d, [2-(Dibenzofuran-2-yloxy)-ethyl]-(3-phenoxypropyl)-amine hydrochloride], the Ki in assay [1] was 78.7 nM.
Turning to `O=c1ccc2cc(CNCCCOc3ccccc3)ccc2o1` [Example 4t, 6-[(3-Phenoxy-propylamino)-methyl]-chromen-2-one], the Ki in assay [1] is 20 nM; in assay [2] it was 1070 nM.
The corresponding values for `O=c1ccc2ccc(CNCCOc3ccc(Cl)cc3)cc2o1` [Example 4o, 7-{[2-(4-Chloro-phenoxy)-ethylamino]-methyl}-chromen-2-one] are 9.5 nM and 286 nM.
For `c1ccc(OCCCNCCOc2ccc3ncccc3c2)cc1` [Example 2a, (3-Phenoxy-propyl)-[2-quinolin-6-yloxy)-ethyl]-amine hydrochloride], in that order: 12.8 nM and 578 nM.

What is called Ki is the equilibrium dissociation constant of an inhibitor or competing ligand from its target.
